Like-named read-outs stand apart in the source and are kept apart here. Marks after values point to notes of the source that are not given here.
Tests used:
physchem [1] = type: physicochemical; settings: pH 7.8
Description: The log P values were measured in accordance with EEC Directive 79/831 Annex V.A8 by HPLC (High Performance Liquid Chromatography) on reversed-phase columns (C 18) using the methods below: [c] The LC-MS determination in the neutral range was carried out at pH 7.8 using the mobile phases 0.001 molar aqueous ammonium bicarbonate solution and acetonitrile linear gradient from 10% acetonitrile to 95% acetonitrile.

Sphaerotheca fuliginea = test: Sphaerotheca test (cucumber)/protective; type: in vivo; settings: Podosphaera fuliginea, 168 h, active compound concentration of 500 ppm, protective, evaluation 7 days after the inoculation, read-out: efficacy
[2] = log P by LC-MS, method [b], acid range pH 2.7; type: physicochemical
Description: The log P values were measured in accordance with EEC Directive 79/831 Annex V.A8 by HPLC (High Performance Liquid Chromatography) on reversed-phase columns (C 18) using the methods below:
[b] The LC-MS determination in the acid range was carried out at pH 2.7 using the mobile phases 0.1% aqueous formic acid and acetonitrile (contains 0.1% formic acid)
linear gradient from 10% acetonitrile to 95% acetonitrile.

[3] = log P by HPLC on reversed-phase columns (C 18), method [a], acidic range pH 2.3; type: physicochemical
Description: The log P values were measured in accordance with EEC Directive 79/831 Annex V.A8 by HPLC (High Performance Liquid Chromatography) on reversed-phase columns (C 18) using the methods below: [a] The determination was carried out in the acidic range at pH 2.3 using the mobile phases 0.1% aqueous phosphoric acid and acetronitrile linear gradient from 10% acetonitrile to 95% acetronitrile.

Fusarium proliferatum = test: Production of Fumonisin FB1 by Fusarium proliferatum (microtitre plates; FB1 by HPLC-MS/MS, growth by OD620); type: cell-based; settings: for IC50: Fusarium proliferatum, 144 h
Fusarium graminearum = test: microbe, parasite or virus in culture; type: cell-based; settings: 168 h, read-out: activity in the inhibition of DON/AcDON
Phakopsora pachyrhizi = test: Phakopsora test (soya beans)/protective; type: in vivo; settings: active compound concentration of 250 ppm, protective, evaluation 1 day after the inoculation
[4] = type: physicochemical
Description: The log P values were measured in accordance with EEC Directive 79/831 Annex V.A8 by HPLC (High Performance Liquid Chromatography) on reversed-phase columns (C 18) using the methods below: […]

physchem [5] = type: physicochemical; settings: pH 7
[6] = FB1 concentration in liquid medium after 6 days at 20° C., HPLC-MS/MS
[7] = OD620 at the beginning and after 6 days

Molecule | pI50 Fum (Fusarium proliferatum; [6]) | log p (physchem [1]) | log p ([2]; pH 2.7) | pI50 growth (Fusarium proliferatum; [7]) | further results
COCC(=O)N(c1cccc(N2CCCC2=O)c1)c1ncc(Cl)c(NC2CC2)n1 [Example 231, N-[5-Chloro-4-(cyclopropylamino)pyrimidin-2-yl]-2-methoxy-N-[3-(2-oxopyrrolidin-1-yl)phenyl]acetamide] | – | – | – | – | chromatographic logP (physchem [1]): 1.82; pest or weed control at 500 ppm (Sphaerotheca fuliginea): ≥ 70%; chromatographic logP ([2]; pH 2.7): 1.87; chromatographic logP ([3]; pH 2.3, log P (pH 2.3)): 1.87
CCOC1CCC(=O)N1c1cccc(Nc2ncc(Cl)c(NC3CC3)n2)c1 (stereo not shown) [Example 106, 1-(3-{[5-Chloro-4-(cyclopropylamino)pyrimidin-2-yl]amino}phenyl)-5-ethoxypyrrolidin-2-one] | – | – | – | – | pest or weed control at 500 ppm (Sphaerotheca fuliginea): ≥ 70%; chromatographic logP ([3]; pH 2.3, log P (pH 2.3)): 1.65; chromatographic logP ([3]; pH 2.3, log p): 1.65
O=C1OCCN1c1cccc(Nc2ncc(Cl)c(NC3CCC3)n2)c1 [Example 59, 3-(3-{[5-Chloro-4-(cyclobutylamino)pyrimidin-2-yl]amino}phenyl)-1,3-oxazolidin-2-one] | – | – | – | – | IC50 (Fusarium proliferatum; FB1 concentration in liquid medium after 6 days at 20° C., HPLC-MS/MS, read-out: pI50 Fum (converted)): 631 nM; IC50 (Fusarium proliferatum; OD620 at the beginning and after 6 days, read-out: pI50 growth (converted)): 2510 nM; pest or weed control at 500 ppm (Sphaerotheca fuliginea): ≥ 70%; chromatographic logP ([2]; pH 2.7): 1.64; inhibition at 50 µM (Fusarium graminearum): > 80%; chromatographic logP ([3]; pH 2.3, log P (pH 2.3)): 1.64; chromatographic logP ([3]; pH 2.3, log p): 1.64
CC1CC(C)N(c2cccc(Nc3ncc(Br)c(NC4CC4)n3)c2)C1=O (stereo not shown) [Example 84] | 6.3 | 2.91[c]; | 2.01[b] | – | –
CCC(C)Nc1nc(Nc2cccc(N3CCCC3=O)c2)ncc1Cl (stereo not shown) [Example 8] | 4.6 | 2.92[c] | – | 4 | log p ([3]; pH 2.3): 1.84[a];
C[C@H]1COC(=O)N1c1cccc(Nc2ncc(Cl)c(NC3CC3)n2)c1 [Example 92] | 6.6 | 2.42[c]; | 1.54[b] | 5.7 | –
FC(F)(F)c1cnc(Nc2cccc(N3CCCC3=S)c2)nc1NC1CC1 [Example 214] | 5.1 | 2.86[c]; | 2.59[b] | 5 | efficacy (Phakopsora pachyrhizi): ≥ 80%
CC1(C)CC(=O)N(c2cccc(Nc3ncc(Cl)c(NC4CC4)n3)c2)C1=O [Example 25] | 6.3 | – | – | 5.6 | log p ([3]; pH 2.3): 1.83[a]
CCC1CC(C)C(=O)N1c1cccc(Nc2ncc(Br)c(NC3CCC3)n2)c1 (stereo not shown) [Example 211] | – | – | 2.63[b]; | – | log p [4]: 2.19[d]
CCC1=C(C)CN(c2cccc(Nc3ncc(Cl)c(NC4CC4)n3)c2)C1=O [Example 224] | 6 | – | – | 5.3 | log p ([3]; pH 2.3): 2.2[a]
CCOC(=O)[C@@H]1CCC(=O)N1c1cccc(Nc2ncc(Cl)c(NC3CC3)n2)c1 [Example 190, Ethyl 1-(3-{[5-chloro-4-(cyclopropylamino)pyrimidin-2-yl]amino}phenyl)-5-oxo-L-prolinate] | – | – | – | – | chromatographic logP (physchem [1]): 2.53; pest or weed control at 500 ppm (Sphaerotheca fuliginea): ≥ 70%; chromatographic logP ([2]; pH 2.7): 1.69; chromatographic logP ([3]; pH 2.3, log P (pH 2.3)): 1.69
CC1CCC(=O)N1c1cccc(Nc2ncc(Br)c(NC3CC3)n2)c1 (stereo not shown) [Example 60] | 6.3 | – | 1.72[b] | 5.5 | log p ([3]; pH 2.3): 1.72[a];
CCC1COC(=O)N1c1cccc(Nc2ncc(Cl)c(NC3CC3)n2)c1 (stereo not shown) [Example 31] | 6.3 | – | – | 5.7 | log p ([3]; pH 2.3): 1.86[a]
CC1(C)CC(=O)N(c2cccc(Nc3ncc(C(F)(F)F)c(NC4CC4)n3)c2)C1=O [Example 62] | 6.2 | – | – | 5.7 | log p ([3]; pH 2.3): 2.63[a]
CC1CCN(c2cccc(Nc3ncc(Br)c(NC4CC4)n3)c2)C1=O (stereo not shown) [Example 187] | 6.3 | 2.83[c]; | 1.87[b] | 5.8 | –
CN(c1nc(Nc2ccc(F)c(N3CCCC3=O)c2)ncc1Cl)C1CC1 [Example 198] | 5.5 | 2.92[c]; | 2.53[b] | 4.8 | –

Molecule | pI50 Fum (Fusarium proliferatum; [6]) | log p (physchem [1]) | log p ([2]; pH 2.7) | pI50 growth (Fusarium proliferatum; [7]) | further results
S=C1CCCN1c1cccc(Nc2ncc(Cl)c(NC3CC3)n2)c1 [Example 33, 1-(3-{[5-Chloro-4-(cyclopropylamino)pyrimidin-2-yl]amino}phenyl)pyrrolidine-2-thione] | – | – | – | – | chromatographic logP (physchem [1]): 2.54; pest or weed control at 500 ppm (Sphaerotheca fuliginea): ≥ 70%; chromatographic logP ([3]; pH 2.3, log p): 1.69; chromatographic logP (physchem [5]): 2.54
CC1(C)CC(=O)N(c2cccc(Nc3ncc(Br)c(NC4CCC4)n3)c2)C1=O [Example 63] | 6.6 | – | – | 5.7 | log p ([3]; pH 2.3): 2.19[a]
CC(C)Nc1nc(Nc2cccc(N3C(=O)C(C)CC3C)c2)ncc1Cl (stereo not shown) [Example 141] | 5.3 | 3.15[c]; | 1.88[b] | 5 | –
O=CN(c1cccc(N2CCCC2=O)c1)c1ncc(Cl)c(NC2CC2)n1 [Example 217, N-[5-Chloro-4-(cyclopropylamino)pyrimidin-2-yl]-N-[3-(2-oxopyrrolidin-1-yl)phenyl]-formamide] | – | – | – | – | pest or weed control at 500 ppm (Sphaerotheca fuliginea): ≥ 70%; chromatographic logP ([2]; pH 2.7): 1.49; chromatographic logP ([3]; pH 2.3, log P (pH 2.3)): 1.22
1-(3-{[4-(Cyclopropylamino)-5-(trifluoromethyl)pyrimidin-2-yl]amino}phenyl)pyrrolidin-2-one [Example 236] | – | – | – | 4.9 | log p ([2]; method [b], LC-MS, acid range pH 2.7): 1.49[b]; log P (pH 2.3) ([3]; pH 2.3): 1.49
CC1CCC(=O)N1c1cccc(Nc2ncc(Br)c(NC3CCC3)n2)c1 (stereo not shown) [Example 36] | 6.2 | – | 1.97[b] | 5.3 | –
O=C1CCC(=O)N1c1cccc(Nc2ncc(Cl)c(NC3CC3)n2)c1 [Example 195] | 6.2 | 1.98[c]; | – | – | log p [4]: 0.99[d]
CC1COC(=O)N1c1cccc(Nc2ncc(Br)c(NCC3CC3)n2)c1 (stereo not shown) [Example 131] | 6 | – | 1.75[b] | 5.3 | –
O=C1CCC(=O)N1c1cccc(Nc2ncc(Cl)c(NC3CCC3)n2)c1 [Example 203] | – | 2.32[c]; | 1.48[b]; | – | log p [4]: 1.24[d]
CC1COC(=O)N1c1cccc(Nc2ncc(Br)c(NC3CCC3)n2)c1 (stereo not shown) [Example 56] | 6.2 | – | – | 5.6 | log p ([3]; pH 2.3): 1.97[a]
COCC(C)Nc1nc(Nc2cccc(N3C(=O)CCC3=O)c2)ncc1Cl (stereo not shown) [Example 202] | – | 2.13[c]; | 1.26[b]; | – | log p [4]: 1.02[d]
CC1CCN(c2cccc(Nc3ncc(Br)c(NC4CCC4)n3)c2)C1=O (stereo not shown) [Example 27] | 6.2 | – | 2.09[b] | 5.6 | log p ([3]; pH 2.3): 2.24[a];
O=C1CCC(=O)N1c1cc(Nc2ncc(C(F)(F)F)c(NC3CC3)n2)ccc1Cl [Example 119, 1-(2-Chloro-5-{[4-(cyclopropylamino)-5-(trifluoromethyl)pyrimidin-2-yl]amino}phenyl)pyrrolidine-2,5-dione] | – | – | – | – | pest or weed control at 500 ppm (Sphaerotheca fuliginea): ≥ 70%; chromatographic logP ([2]; pH 2.7): 2.49; chromatographic logP ([3]; pH 2.3, log P (pH 2.3)): 2.49
CN(c1nc(Nc2cccc(N3C(=O)CC(C)(C)C3=O)c2)ncc1Cl)C1CC1 [Example 177] | 6.1 | – | 2.55[b] | 5.7 | –
CCC1CC(C)C(=O)N1c1cccc(Nc2ncc(Cl)c(NC3CC3)n2)c1 (stereo not shown) [Example 206, 1-(3-{[5-Chloro-4-(cyclopropylamino)pyrimidin-2-yl]amino}phenyl)-5-ethyl-3-methylpyrrolidin-2-one] | – | – | – | – | chromatographic logP (physchem [1]): 3.15; pest or weed control at 500 ppm (Sphaerotheca fuliginea): ≥ 70%; chromatographic logP ([2]; pH 2.7): 2.19; chromatographic logP ([3]; pH 2.3, log P (pH 2.3)): 2.19

Reference: patent US20110245242A1, “Heterocyclically Substituted Anilinopyrimides” (Bayer CropScience AG, priority 2008, published 2011)
